# Data reported in ChEMBL document CHEMBL1201862, “PubChem BioAssay data set” (2004).
#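 Cells were grown in 96-well plates and exposed to each compound for 48 hours at five concentrations; endpoints were interpolated linearly between bracketing concentrations, or set to the highest concentration if not reached. At the GI50, growth is halved.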 Calls of active or inactive are those of the source. Cut-off read from the data, not from the text of the source: active = GI50 up to about 1.1 µM and inactive = higher.
# What was measured:
# Test in all cases: inhibition of tumour cell growth, NCI panel, 48 h
# 786-0 = system: 786-0
# BT-549 = system: BT-549
# COLO 205 = system: COLO 205
# HCT-116 = system: HCT-116
# HT-29 = system: HT-29
# KM12 = system: KM12
# NCI-H460 = system: NCI-H460
# PC-3 = system: PC-3
# RXF 393 = system: RXF 393
# SF-539 = system: SF-539
# SK-MEL-2 = system: SK-MEL-2
# SK-OV-3 = system: SK-OV-3
# SN12C = system: SN12C
# SNB-19 = system: SNB-19
# SW-620 = system: SW-620
# TK-10 = system: TK-10
# LOX IMVI = system: LOX IMVI
# T47D = system: T47D
# MDA-N = system: MDA-N
Compound,GI50 (786-0),GI50 (BT-549),GI50 (COLO 205),GI50 (HCT-116),GI50 (HT-29),GI50 (KM12),GI50 (NCI-H460),GI50 (PC-3),GI50 (RXF 393),GI50 (SF-539),GI50 (SK-MEL-2),GI50 (SK-OV-3),GI50 (SN12C),GI50 (SNB-19),GI50 (SW-620),GI50 (TK-10),GI50 (LOX IMVI),GI50 (T47D),GI50 (MDA-N)
C1=N\CCN2CCN(CC/N=C\c3ccc(cc3)OCc3cccc(n3)COc3ccc/1cc3)CC2,> 50 µM (inactive),> 50 µM (inactive),> 50 µM (inactive),> 50 µM (inactive),> 50 µM (inactive),> 50 µM (inactive),> 50 µM (inactive),> 50 µM (inactive),11.6 µM (inactive),> 50 µM (inactive),> 50 µM (inactive),> 50 µM (inactive),> 50 µM (inactive),> 50 µM (inactive),> 50 µM (inactive),> 50 µM (inactive),–,–,–
NC(Cc1n[nH]c2ccccc12)C(=O)O (configuration not stated),> 100 µM (inactive),> 100 µM (inactive),> 100 µM (inactive),> 100 µM (inactive),> 100 µM (inactive),> 100 µM (inactive),> 100 µM (inactive),> 100 µM (inactive),> 100 µM (inactive),> 100 µM (inactive),0.104 µM (active),> 100 µM (inactive),> 100 µM (inactive),> 100 µM (inactive),> 100 µM (inactive),> 100 µM (inactive),> 100 µM (inactive),> 100 µM (inactive),–
CCCc1cn2c(/C=N/N=C(N)N)c(-c3c(OC)ccc(OC)c3[N+](=O)[O-])nc2s1,9.89 µM (inactive),10.9 µM (inactive),2.16 µM (inactive),6.18 µM (inactive),4.06 µM (inactive),3.16 µM (inactive),12.3 µM (inactive),9.59 µM (inactive),9.55 µM (inactive),16.9 µM (inactive),16.7 µM (inactive),18.1 µM (inactive),14.2 µM (inactive),18.4 µM (inactive),7.78 µM (inactive),16.8 µM (inactive),3.02 µM (inactive),3.7 µM (inactive),–
N#Cc1c(-c2ccc([N+](=O)[O-])cc2)cc(-c2ccc(Nc3ccnc4cc(Cl)ccc34)cc2)[nH]c1=O,> 100 µM (inactive),> 100 µM (inactive),> 100 µM (inactive),> 100 µM (inactive),–,4.01 µM (inactive),> 100 µM (inactive),> 100 µM (inactive),> 100 µM (inactive),> 100 µM (inactive),> 100 µM (inactive),> 100 µM (inactive),–,63.8 µM (inactive),> 100 µM (inactive),98.9 µM (inactive),> 100 µM (inactive),> 100 µM (inactive),–
COC(=O)C1=C(O)C(O)=C(C(=O)OC)CC1,> 100 µM (inactive),–,> 100 µM (inactive),15.1 µM (inactive),> 100 µM (inactive),> 100 µM (inactive),> 100 µM (inactive),–,17.9 µM (inactive),> 100 µM (inactive),> 100 µM (inactive),> 100 µM (inactive),> 100 µM (inactive),> 100 µM (inactive),> 100 µM (inactive),> 100 µM (inactive),> 100 µM (inactive),–,–
C[n+]1c(-c2ccc(/C=N/NC(=S)N/N=C/c3ccc(-c4cn5ccsc5[n+]4C)cc3)cc2)cn2ccsc21,> 100 µM (inactive),–,> 100 µM (inactive),> 100 µM (inactive),75.5 µM (inactive),> 100 µM (inactive),> 100 µM (inactive),> 100 µM (inactive),–,> 100 µM (inactive),–,> 100 µM (inactive),> 100 µM (inactive),> 100 µM (inactive),> 100 µM (inactive),> 100 µM (inactive),–,> 100 µM (inactive),45.2 µM (inactive)
c1ccc2c(c1)CCN2CCN1CCc2ccccc21,> 10 µM (inactive),–,> 10 µM (inactive),> 10 µM (inactive),> 10 µM (inactive),> 10 µM (inactive),> 10 µM (inactive),> 10 µM (inactive),> 10 µM (inactive),> 10 µM (inactive),> 10 µM (inactive),> 10 µM (inactive),> 10 µM (inactive),> 10 µM (inactive),> 10 µM (inactive),> 10 µM (inactive),> 10 µM (inactive),> 10 µM (inactive),> 10 µM (inactive)
CC(C)=C[C@@H]1C[C@H](C)c2c(O)cc(C)c3c2C1=C(C)C(=O)C3=O [ELISABATIN A],15.9 µM (inactive),13.7 µM (inactive),17.7 µM (inactive),15.2 µM (inactive),19.4 µM (inactive),15.6 µM (inactive),18 µM (inactive),10.5 µM (inactive),–,17.9 µM (inactive),–,16.7 µM (inactive),15 µM (inactive),14.4 µM (inactive),16.1 µM (inactive),22.3 µM (inactive),16.3 µM (inactive),–,16.3 µM (inactive)
